Experiments:
lactase = test: Stability with respect to lactase; assay type: in vitro ADME; settings: 0.9 unit lactase, 1% solution, 37° C., 6 h
From the text: The enzyme lactase that is present at the mucosa in the small intestine serves in vivo to break down lactose that gets into the small intestine and the resulting monosaccharides are absorbed into the bloodstream through the intestinal wall.
The enzyme lactase is isolated in a modified method of Wallenfels, K., and Fischer, J. (Z. Physiologische Chemie 321 (1960) 223).
Solutions 1-5: see Example 8c)
Solution 6: 1% solution of lactose in solution 1
Solution 7: 1% solution of isomalt in solution 1
Solution 8: Lactase in solution 1
(solutions 2-7), mixed and incubated at 37° C. The reaction is stopped after 6 h by heating to 95° C. for 15 min.

[1] = Stability in the stomach: hydrolysis rate at pH 2.0; assay type: physicochemical; settings: 1% solution, 10 mmol/L hydrochloric acid, pH 2.0, 37° C.
Description: The stability of a substance in the gastric passage can be simulated by determining the hydrolysis rate at pH 2.0. Sucrose and 1-kestose are used as controls.
In each case a 1% solution of the trisaccharides (DP 3) from Example 4 is incubated with 10 mmol/L hydrochloric acid, pH 2.0 at 37° C. for 3 h. Samples are taken from the reaction mixture after 60, 120 and 180 min and are analyzed by basic anion exchange chromatography, HPAEC.

[2] = test system: glucoamylase/maltase (GM complex); test: Stability with respect to small intestine α-glucosidases: glucoamylase/maltase; settings: 120 min incubation
Description: Solution 1: 0.1 mol/L triethanolamine (TEA) buffer, pH 7.0
Solution 6: 1% solution of maltose in solution 1
Solution 7: 1% solution of sucrose in solution 1
Solution 8: 1% solution of isomalt in solution 1
Solution 9: 1% solution of isomaltulose in solution 1
Solution 11: Glucoamylase/maltase enzyme complex in solution 1
i) 0.7 unit of the enzyme complex saccharase/isomaltase (solution 10) or glucoamylase/maltase (solution 11) was added in each case to 1.0 mL of a carbohydrate solution heated to 37° C. (solution 2 to solution 8), mixed and incubated at 37° C.
ii) For incubation under more severe conditions, 16 units of the enzyme complex saccharase/isomaltase or 13 units of the enzyme complex glucoamylase/maltase were used. The reaction was stopped after 2 h by heating to 95° C. for 15 min. The resulting monosaccharides and the undegraded saccharides of the relevant batches were quantitatively determined by HPAEC.

B. bifidum DSM 20215 = test: Fermentation by human bifidobacteria; assay type: cell-based; set-up: key: −: no decomposition; +: decomposition and metabolization of galactose from β-1,3-galactosyl isomalt; ++: decomposition and metabolization of galactose and glucose from β-1,3-galactosyl isomalt; +++: complete decomposition of β-1,3-galcatosyl isomalt; settings: medium 2, 48 h
Description: (§1) To investigate the prebiotic and bifidogenic properties of galactosyl isomalt, the growth of various human bifidobacteria was investigated on this substrate in vitro. An anaerobic medium of the following composition was used:
(§2) 22 strains of human bifidobacteria were first precultured in “Hungate” test tubes on the above medium 1, in which the source of carbohydrate had first been replaced by glucose (10 g/L). The strains were then inoculated onto medium 2, incubated for 48 h, and then the optical density (E578), the pH, the formation of acetate and lactate and the decrease of the β-1,3-galactosyl isomalt concentration were determined.
(§3) Various decomposition paths are distinguished with regard to the metabolization of galactosyl isomalt. Some strains degrade galactose from the substrate with a β-galactosidase and metabolize this monosaccharide (+).
(§4) Other strains additionally degrade glucose from the resulting isomalt, in addition to galactose, metabolize both monosaccharides, while this is not true for the resulting mannitol or sorbitol (++). The third group is capable of utilizing galactosyl isomalt as a substrate and also metabolizing mannitol and sorbitol (+++).

B. bifidum DSM 20456 = test: Fermentation by human bifidobacteria; assay type: cell-based; set-up: key: −: no decomposition; +: decomposition and metabolization of galactose from β-1,3-galactosyl isomalt; ++: decomposition and metabolization of galactose and glucose from β-1,3-galactosyl isomalt; +++: complete decomposition of β-1,3-galcatosyl isomalt; settings: medium 2, 48 h
Description: as §1, §2, §3, §4

B. bifidum DSM 20082 = test: Fermentation by human bifidobacteria; assay type: cell-based; set-up: key: −: no decomposition; +: decomposition and metabolization of galactose from β-1,3-galactosyl isomalt; ++: decomposition and metabolization of galactose and glucose from β-1,3-galactosyl isomalt; +++: complete decomposition of β-1,3-galcatosyl isomalt; settings: medium 2, 48 h
Description: as §1, §2, §3, §4

B. gallicum DSM 20093 = test: Fermentation by human bifidobacteria; assay type: cell-based; set-up: key: −: no decomposition; +: decomposition and metabolization of galactose from β-1,3-galactosyl isomalt; ++: decomposition and metabolization of galactose and glucose from β-1,3-galactosyl isomalt; +++: complete decomposition of β-1,3-galcatosyl isomalt; settings: medium 2, 48 h
Description: as §1, §2, §3, §4

B. angulatum DSM 20225 = test: Fermentation by human bifidobacteria; assay type: cell-based; set-up: key: −: no decomposition; +: decomposition and metabolization of galactose from β-1,3-galactosyl isomalt; ++: decomposition and metabolization of galactose and glucose from β-1,3-galactosyl isomalt; +++: complete decomposition of β-1,3-galcatosyl isomalt; settings: medium 2, 48 h
Description: as §1, §2, §3, §4

[3] = test system: B. pseudocatenulatum DSM 20439; test: Fermentation by human bifidobacteria; assay type: cell-based; set-up: key: −: no decomposition; +: decomposition and metabolization of galactose from β-1,3-galactosyl isomalt; ++: decomposition and metabolization of galactose and glucose from β-1,3-galactosyl isomalt; +++: complete decomposition of β-1,3-galcatosyl isomalt; settings: medium 2, 48 h
Description: as §1, §2, §3, §4

B. breve DSM 20091 = test: Fermentation by human bifidobacteria; assay type: cell-based; set-up: key: −: no decomposition; +: decomposition and metabolization of galactose from β-1,3-galactosyl isomalt; ++: decomposition and metabolization of galactose and glucose from β-1,3-galactosyl isomalt; +++: complete decomposition of β-1,3-galcatosyl isomalt; settings: medium 2, 48 h
Description: as §1, §2, §3, §4

B. bifidum DSM 20239 = test: Fermentation by human bifidobacteria; assay type: cell-based; set-up: key: −: no decomposition; +: decomposition and metabolization of galactose from β-1,3-galactosyl isomalt; ++: decomposition and metabolization of galactose and glucose from β-1,3-galactosyl isomalt; +++: complete decomposition of β-1,3-galcatosyl isomalt; settings: medium 2, 48 h
Description: as §1, §2, §3, §4

B. infantis DSM 20223 = test: Fermentation by human bifidobacteria; assay type: cell-based; set-up: key: −: no decomposition; +: decomposition and metabolization of galactose from β-1,3-galactosyl isomalt; ++: decomposition and metabolization of galactose and glucose from β-1,3-galactosyl isomalt; +++: complete decomposition of β-1,3-galcatosyl isomalt; settings: medium 2, 48 h
Description: as §1, §2, §3, §4

Structure (SMILES): OCC1O[C@H](OC[C@@H](O)[C@@H](O)[C@H](O)C(O)CO)C(O)C(O[C@@H]2OC(CO)[C@H](O)C(O)C2O)[C@@H]1O (mixture of isomers) [β-1,3-Galactosyl isomalt, β-D-galactosyl-(1→3)-α-D-glucosyl-(1→6)-D-sorbitol(β-1,3-galactosyl-1,6-GPS) and β-D-galactosyl-(1→3)-α-D-glucosyl-(1→1)-D-mannitol(β-1,3-galactosyl-1,1-GPM)]
- Hydrolysis rate [%], incubation with lactase (lactase): 4.8%
- Hydrolysis rate [%] ([1]; incubation time 0 min): 0%
- Hydrolysis rate [%] ([1]; incubation time 60 min): 0%
- Hydrolysis rate [%] ([1]; incubation time 120 min): 0%
- Hydrolysis rate [%] ([1]; incubation time 180 min): <1%
- Hydrolysis rate [%] ([2]; More stringent (13 units)): 0%
- Hydrolysis rate [%] ([2]; Standard (0.7 unit), 37° C., pH 7.0): 0%
- Growth on β-1,3-galactosyl isomalt (B. bifidum DSM 20215): +
- Growth on β-1,3-galactosyl isomalt (B. bifidum DSM 20456): −
- Growth on β-1,3-galactosyl isomalt (B. bifidum DSM 20082): +
- Growth on β-1,3-galactosyl isomalt (B. gallicum DSM 20093): −
- Growth on β-1,3-galactosyl isomalt (B. angulatum DSM 20225): ++
- Growth on β-1,3-galactosyl isomalt [3]: ++
- Growth on β-1,3-galactosyl isomalt (B. breve DSM 20091): +
- Growth on β-1,3-galactosyl isomalt (B. bifidum DSM 20239): +
- Growth on β-1,3-galactosyl isomalt (B. infantis DSM 20223): +++
